Assay: Peptide stability assay: stability of K5 in human plasma (HPLC/MS of free intact peptide)
Type: in vitro ADME
Set-up: remaining at 4 h / remaining at 24 h: dose or concentration left out as unconfirmed
Conditions: for % K5 peptide in plasma: final concentration 160 mM K5
Method: K5 was prepared as a 1 μM solution and dissolved in 25% human serum albumin. The mixture was then incubated at 37° C. in the presence of human plasma to final concentration of […] K5. Aliquots of 100 μl were withdrawn from the plasma at 0, 4 hours and 24 hours. The 100 μl aliquots were mixed with 100 μl of blocking solution (5 vol. 5% ZnSO4/3 vol. Acetonitrile/2 vol. Methanol) in order to precipitate all proteins. The sample was centrifuged for 5 min at 10,000 g and the supernatant containing the peptide was recovered and filtered through a 0.22 μm filter. The presence of free intact K5 peptide was assayed by the HPLC/MS. The HPLC parameters for detection of K5 peptide in serum were as follows.
The HPLC method was as follows: A Vydac C18 250×4.6 mm, 5μ particle size column was utilized. The column temperature was 30° C. with a flow rate of 0.5 ml/min. Mobile Phase A was 0.1% TFA/water. Mobile Phase B was 0.1% TFA/acetonitrite. The injection volume was 10 μl.
The gradient was as follows: […]
The proteins were detected at 214, 254 and 334 nm. For mass spectral analysis, the ionization mode was API-electrospray (positive mode) at an M/Z range of 300 to 2000. The gain was 3.0, fragmentor 120 v, threshold 20, stepsize 0.1. The gas temp was 350° C. and the dying gas volume was 10.0 l/min. The Neb pressure was 24 psi and the Vcap was 3500V. The HPLC method was as follows: A Vydac C18 250×4.6 mm, 5μ particle size column was utilized. The column temperature was 30° C. with a flow rate of 0.5 ml/min. Mobile Phase A was 0.1% TFA/water. Mobile Phase B was 0.1% TFA/acetonitrite. The injection volume was 10 μl.
The proteins were detected at 214, 254 and 334 nm. For mass spectral analysis, the ionization mode was API-electrospray (positive mode) at an M/Z range of 300 to 2000. The gain was 3.0, fragmentor 120 v, threshold 20, stepsize 0.1. The gas temp was 350° C. and the drying gas volume was 10.0 l/min. The Neb pressure was 24 psi and the Vcap was 3500V.

% K5 peptide in plasma (0 hrs, 37° C. in human plasma): 100%
remaining at 4 h (4 hrs, 37° C. in human plasma): 9%
% K5 peptide in plasma (4 hrs, 37° C. in human plasma): 9%
remaining at 24 h (24 hrs, 37° C. in human plasma): 0%
stability of unmodified K5 peptide in serum/plasma (in words) (human plasma, 37° C.): quite unstable
Substance: H-PRKLYDK-NH2 [Example K5, Pro-Arg-Lys-Leu-Tyr-Asp-Lys-NH2]

Reference: US7741286B2, “Long lasting anti-angiogenic peptides” (ConjuChem Biotechnologies Inc., priority 1999, dated 2010)
